From PubChem BioAssay AID2423 (Broad Institute, 2010)
pEC50: −log10 of the molar value. Inconclusive results are not listed. Activity calls are given as the source filed them. How the calls were made is not given here.

tested on: C. albicans CaCi-8 + fluconazole, Alamar Blue growth, 48 h; assay: resistant C. albicans growth inhibition with fluconazole, dose response, CaCi-8 strain, Alamar Blue fluorescence (AID 2423)

Compound | pEC50 | EC50
COc1ccc(-n2c(-c3cccc(C)c3[N+](=O)[O-])n[nH]c2=S)cc1 | 6.50 | 
Cc1ccc(S(=O)(=O)C(C#N)c2nc3ccccc3nc2N2CCN(C)CC2)cc1C (centres undefined) | 4.80 | 
Oc1c(Br)cc(Br)cc1CNc1cccc2cccnc12 |  | > 15000 nM (inactive)
C[n+]1c2n(c3ccccc31)N=C(c1ccc(-c3ccccc3)cc1)CS2 | 5.73 | 
CCc1cc(C(=O)NNC(=S)Nc2cc(C)ccc2C)cs1 | 6.37 | 
O=C1N/C(=N\N=C\c2cccnc2)SC1Cc1ccc(SC(F)F)cc1 (centres undefined) | 5.49 | 
Cc1onc(-c2c(Cl)cccc2Cl)c1C(=O)N/N=C(\N)COc1ccc(Cl)cc1 | 5.77 | 
COc1cc(C(Nc2ccccn2)c2ccc3ccc(C)nc3c2O)cc(OC)c1O (centres undefined) | 5.69 | 
CCOc1cc(N2CCOCC2)c(OCC)cc1NC(=O)COc1cccc2cccnc12 |  | > 15000 nM (inactive)
COc1ccc(-c2nnc(NC(=O)c3ccc(S(=O)(=O)N4CCCc5ccccc54)cc3)o2)cc1 | 6.71 | 
Cc1cc(/C=N/NC(N)=S)c(C)n1-c1cccc(Cl)c1 | 5.78 | 
COc1ccc(C(=O)NC(=S)NNC(=O)c2ccc3ccccc3n2)cc1 | 6.23 | 
O=C(CSc1cccc[n+]1[O-])CSc1cccc[n+]1[O-] | 4.87 | 
Cc1ccc(NC(=O)c2noc(C(C)C)c2[N+](=O)[O-])cc1 | 5.49 | 
Cc1ccc2nc(N3C(=O)C(O)=C(C(=O)c4ccco4)C3c3ccc(C)o3)sc2c1 (centres undefined) | 6.88 | 
Cn1c(N/N=C/c2c[nH]c3ccccc23)nc2ccccc21 | 5.22 | 
CN(C)c1ccc(C(=O)N/N=C/c2cc(Br)cc(Br)c2O)cc1 | 4.96 | 
CCN(CC)c1ccc(/C=N/Nc2nc3ccccc3[nH]2)c(O)c1 | 6.21 | 
CC(=O)Nc1cccc(NC(=O)Nc2cccc(F)c2)c1 |  | > 15000 nM (inactive)
CNC(=S)N/N=C/c1ccc(-c2ccc(Cl)c([N+](=O)[O-])c2)o1 | 5.71 | 
Cc1ccc(NC(=S)c2nc3ccccc3[nH]2)cc1 |  | > 16000 nM (inactive)
CCOc1ccc(-n2c(O)c(/C=N/Nc3nc(C)cc(C)n3)c3ccccc3c2=O)cc1 |  | > 15000 nM (inactive)

Compound | pEC50 | EC50
O=C1NC(=O)/C(=C/c2ccccc2Oc2ccc(Cl)cc2)S1 |  | > 16000 nM (inactive)
N#C/C(=C\c1ccc(OC(=O)c2cccs2)cc1)c1nc2ccccc2[nH]1 | 5.49 | 
COc1cccc(/C=N/Nc2cc(N3CCOCC3)ncn2)c1O | 5.20 | 
CCCc1cc(C(=O)Nc2sc3c(c2C#N)CCC3)no1 |  | > 15000 nM (inactive)
Cc1ccc(C)c(S(=O)(=O)N2CCN(Cc3ccc(O)c4ncccc34)CC2)c1 | 5.67 | 
CCOc1ccc(/C=C/C2=CC(C)(C)NC(=S)N2)cc1 | 5.94 | 
O=C(CC1CC2CCC1C2)Nc1nc(-c2ccccn2)cs1 (centres undefined) | 6.19 | 
C=C(C)CNC(=S)N/N=C1\CCCCc2ccccc21 |  | > 16000 nM (inactive)
CCCCCCn1c(=O)c(-c2ccccc2)c(O)c2ccccc21 | 5.03 | 
Cc1ccc(O)c(C(=O)CC(=O)c2ccccc2Cl)c1 | 5.80 | 
Cc1ccc(NC(=O)C2C(C(=O)O)C3C=CC2C32CC2)cc1 (centres undefined) |  | > 16000 nM (inactive)
Cc1cc([N+](=O)[O-])ccc1-c1ccc(C2Nc3ccccc3C(=O)N2O)o1 (centres undefined) | 5.61 | 
Cc1ccc(S(=O)(=O)c2c(C)nn(C(C)(C)C)c2OC(=O)c2ccc(Br)o2)cc1 |  | > 16000 nM (inactive)
O=C(NCc1ccco1)c1sc(=S)n2c1[nH]c(=O)c1ccccc12 | 6.67 | 
O=C(Nc1nc2ccc(SC(F)F)cc2s1)c1ccc(NS(=O)(=O)c2ccc(F)c(F)c2)cc1 | 5.78 | 
Cc1ccc(Nc2cc(C)nn2-c2nc(C)cc(=O)[nH]2)cc1 | > 6.92 | 
CC(c1ccc(Cl)cc1)n1c(-c2ccc3ccccc3n2)n[nH]c1=S (centres undefined) | 5.28 | 
O=[N+]([O-])c1cccnc1S(=O)(=O)c1ccccc1 | 6.06 | 
CCOc1cc(-c2nc(-c3cc(OC)c(OC)c(OC)c3)no2)cc(OCC)c1OCC |  | > 16000 nM (inactive)
CCN(CC)c1ccc(/C=N/NC(=O)c2nnn(-c3nonc3N)c2C(C)C)c(O)c1 | 6.33 | 
Nc1ccc(C(=O)N/N=C\c2ccc(OC(=O)c3ccccc3Cl)cc2)cc1 | 6.37 | 
CCCCC(=O)NC(c1ccco1)c1cc(Cl)c2cccnc2c1O (centres undefined) | 6.20 | 

Compound | pEC50 | EC50
CC(C)c1ccc2oc(-c3ccc(NC(=O)c4ncn[nH]4)cc3)nc2c1 |  | > 16000 nM (inactive)
COc1ccc2c(c1)c(/C=C/c1cc[n+](C)cc1)cn2C | 5.23 | 
Cc1ccc(C2CC2C(=O)NNC(=S)Nc2cccc(Cl)c2)cc1 (centres undefined) | 5.48 | 
CC[n+]1c(/C=C/C=C/c2ccc(N(C)C)cc2)sc2ccccc21 | > 6.92 | 
COc1ccc(-c2nnc(NC(=O)c3ccc(F)cc3)o2)cc1 | 6.61 | 
O=C(CCNC(=O)c1ccc(Br)cc1)Nc1nccs1 |  | > 15000 nM (inactive)
O=c1nc(/C=C/c2cc([N+](=O)[O-])ccc2Cl)cc(C(F)(F)F)[nH]1 | 6.02 | 
C=CCn1c(COc2ccc(F)cc2)nnc1SCC(=O)Nc1cccc(S(N)(=O)=O)c1 |  | > 16000 nM (inactive)
CCCC(=O)NC(c1ccco1)c1cc([N+](=O)[O-])c2cccnc2c1O (centres undefined) | 6.08 | 
Cc1ccc(NC(=O)NNC(=O)c2cc3ccccc3cc2O)cc1C |  | > 16000 nM (inactive)
O=C(NNC(=O)c1cc2ccccc2cc1O)NC1CCCCC1 | 4.87 | 
CC1(C)CC(N=Cc2c(O)n(Cc3ccc4c(c3)OCO4)c(=O)c3ccccc23)CC(C)(C)N1 | 5.41 | 
Cc1c(Cl)ccc(S(=O)(=O)Nc2cccnc2)c1Cl |  | > 15000 nM (inactive)
CCN(CC)c1nc(N)c2c(N)nc3c(c2c1C#N)CC(c1ccccc1)O3 (centres undefined) |  | > 16000 nM (inactive)
O=C(Oc1c(Cl)cc(Cl)c2cccnc12)c1cccc([N+](=O)[O-])c1 | 6.35 | 
CCOc1ccc(C(=O)Nc2ccc(Cc3ccncc3)cc2)cc1Br | 5.44 | 
S=c1[nH]nc(-c2cccs2)n1/N=C/c1cccs1 | 5.97 | 
Cc1ccc(NC2=CC(=O)C(=O)c3ccccc32)cc1 | 6.35 | 
Clc1ccccc1C(c1ccccc1)(c1ccccc1)n1ccnc1 | 6.88 | 
CNC(=S)N1N=C(c2ccccc2)CC1c1ccccc1Cl (centres undefined) |  | > 16000 nM (inactive)
O=C(NNC(=O)c1cc2ccccc2cc1O)Nc1ccccc1F |  | > 16000 nM (inactive)
O=C(CCl)N(c1ccc(Cl)cc1)c1c[nH]c2ccccc12 | 5.19 | 

Compound | pEC50 | EC50
c1ccc2c(c1)CCN(c1ncnc3c1[nH]c1ccccc13)C2 | 6.25 | 
Cc1nn(-c2ccccc2)c(N2CCCC2)c1/C=N/NC(=O)c1ccccc1O |  | > 15000 nM (inactive)
CCC(=O)NC(c1ccc(Cl)cc1Cl)c1ccc2cccnc2c1O (centres undefined) | 6.15 | 
Cn1c(/C=C/c2cccc([N+](=O)[O-])c2)c([N+](=O)[O-])c(=O)n(C)c1=O | 5.60 | 
CCn1c(C)nc2cc(C(=O)N/N=C/c3cccc(OC)c3O)ccc21 |  | > 16000 nM (inactive)
CCCn1nnnc1NC(=O)c1ccc2ccccc2c1 | 5.78 | 
Cc1cc(OCC(=O)NNC(=S)NC(=O)c2cccs2)ccc1Cl | 5.78 | 
N#C/C(C(N)=O)=c1/ccc2c(c1)N1C3=C(CCCC3)CC3CCCCC31N=2 (centres undefined) | 5.51 | 
CCOC(=O)N1C(=O)C2(CCCCC2)N(c2ccccc2Cl)C1=S | 5.70 | 
Cn1c(SCC(=O)N2CCCc3ccccc32)nnc1-c1ccccc1 |  | > 16000 nM (inactive)
CCOC(=O)C1CCN(Cc2ccc(O)c3ncccc23)CC1 |  | > 15000 nM (inactive)
CC(=O)Nc1ncnc2c1c(-c1ccc(Cl)cc1)nn2C(C)(C)C | 5.88 | 
Oc1ccc(/C=N/N(c2ccccc2)c2ccccc2)c(O)c1O | 4.97 | 
CCCCCc1ccc(OCCCC[n+]2ccc(C)cc2)c(CCCCC)c1 |  | > 16000 nM (inactive)
COc1cc(OC)cc(C(=O)Oc2c(CN3CCOCC3)cc(Cl)c3cccnc23)c1 | 5.58 | 
C/C(=N\NC(=O)c1cc(C2CC2)nc2ccccc12)c1ccc(O)cc1O | 5.67 | 
Cc1ccccc1C(=O)O/N=C/c1c(N2CCOCC2)n(C)c2ccccc12 | 6.23 | 
Cc1onc(-c2c(F)cccc2Cl)c1C(=O)NNC(=O)C1CCN(Cc2ccccc2)CC1 |  | > 15000 nM (inactive)
c1ccc2c(c1)OCC(CNc1ncnc3sccc13)O2 (centres undefined) | 5.40 | 
CCOC(=O)c1ccc(-c2ccc(C3Nc4ccccc4C(=O)N3O)o2)cc1 (centres undefined) | 5.25 | 
Cc1c(N=NC2=C(O)CC(C)(C)CC2=O)c(=O)n(-c2ccccc2)n1C | 4.85 | 
CCCc1cc(=O)[nH]c(SCC(=O)Nc2ccc(Br)cc2Br)n1 | 5.59 | 

Compound | pEC50 | EC50
CCOC(=O)Cc1csc(NC(=O)c2ccc3ncsc3c2)n1 | 5.17 | 
CCOc1ccc2nc(N=NC3=C(O)CC(C)(C)CC3=O)sc2c1 |  | > 16000 nM (inactive)
O=C(Nc1nnc(-c2ccc3c(c2)CCCC3)o1)c1ccccc1 | 6.32 | 
C=CCc1cccc(/C=N/NC(=O)CNc2ccccc2OC)c1O | 4.90 | 
O=[N+]([O-])c1ccc(C2CCCC/C2=N/OCc2ccc(F)cc2)c([N+](=O)[O-])c1 (centres undefined) |  | > 16000 nM (inactive)
O=C(NC(=S)Nc1ccccc1O)c1ccc(Cl)cc1Cl | 6.20 | 
O=S(=O)(O)c1cc(O)c2c(O)c(N=Nc3cc(Cl)ccc3O)c(S(=O)(=O)O)cc2c1 | 5.12 | 
Cc1cccc2sc(NNC(=O)c3cc(-c4cccs4)nc4ccccc34)nc12 | 6.23 | 
CCOC(=O)COc1ccc(S(=O)(=O)N2CCN(c3ccccc3F)CC2)cc1 |  | > 15000 nM (inactive)
CCCCNC(=O)c1cn(C)c2ccc(S(=O)(=O)N3CCCC3)cc2c1=O |  | > 15000 nM (inactive)
CC1CCN(Cc2c(C(=O)N/N=C/c3cc(Cl)ccc3O)nnn2-c2nonc2N)CC1 | 6.16 | 
CSc1ncc(Cl)c(C(=O)C(C#N)c2nc3c(C)cc(C)cc3c(=O)[nH]2)n1 (centres undefined) |  | > 16000 nM (inactive)
O=C1NC(=O)/C(=C\c2ccc(Br)o2)S1 | 5.77 | 
Cc1cccc(C(=O)NNC2=C(C(=O)C(F)(F)F)CCC2)c1O | 5.91 | 
O=C(Oc1cc2oc(=O)c3c(c2cc1Cl)CCCC3)c1cccs1 | 6.19 | 
Cc1cccc(NC(=S)NNC(=O)c2cc3c(s2)CCC(C)C3)c1C (centres undefined) | 5.86 | 
COc1ccc(-c2nc(CN3CCN(c4cc(C)nc(C)c4)CC3)c(C)o2)c2ccccc12 | 5.60 | 
O=C(NNC(=S)Nc1ccc(Cl)c(Cl)c1)c1ccccn1 | 5.95 | 
CCn1c(O)c(N=NC(=O)c2cccs2)c2ccccc21 | 5.88 | 
CCc1ccc(OCC(=O)NNC(=S)NC(=O)C2CCCCC2)c(Br)c1 | 5.75 | 
Nc1n[nH]c(-c2cccc([N+](=O)[O-])c2)n1 |  | > 15000 nM (inactive)
